In brackets after ≈: the same amount, converted by molar mass.
Tests used:
[1] = test system: human melanoma RPMI-7272 cells; assay: In Vitro RPMI-7272 Human Melanoma Test; type: cell-based; details: 72 hours after addition of compound, read-out: ID50 (dose required to inhibit the number of cell doublings by 50%)
Method: The compounds of this invention were also tested for their ability to inhibit the growth of human melanoma RPMI-7272 cells in vitro.
Cells are seeded at 3×10^5 per 35 mm plate to initiate growth inhibition studies. Cultures to receive growth medium only (control cultures) are set up in quadruplicate; cultures to receive varying concentrations of compounds are set up at one dish per dose of compound. Twenty-four hours post-seeding, duplicate control cell cultures are trypsinized and cells are counted using a Coulter Counter (day 1 control counts). At this time, varying concentrations of test compounds, from 100 to 0.00001 μg/mL are added to cultures and growth medium only is added to control cultures. Seventy-two hours after the addition of compound, cells are trypsinized and counted. The numbers of cell population doublings (day 4) in the presence or absence of compound are calculated.
Compounds are dissolved at 10-25 mg/mL in dimethylsulfoxide. Dilutions to 1 mg/mL in complete growth medium are made, followed by stock preparations of 100 and 30 μg/mL in complete growth medium. Serial ten-fold dilutions in complete medium are formulated from the 100 and 30 μg/mL stocks, respectively, and added to cultures.

L1210 leukemia = assay: L1210 Murine Leukemia Test; type: in vivo, mouse; details: intraperitoneal, once daily for nine days
Method: (§1) The efficacy of the compounds of this invention against transplanted mouse tumors was evaluated in test systems which are used by the National Cancer Institute for the detection and assessment of anticancer activity. […] J. Cancer, 17, 129-142, (1981); Venditti, J. M., Seminars in Oncology, 8(4)(1981); Goldin, A. and J. M. Venditti in Recent Results in Cancer Research, 70, S. K. Carter and Y. Sakurai, Eds., Springer-Verlag, Berlin/Heidelberg, 1980].
The L1210 tumor line originated in 1948 as a lymphocytic leukemia in a female DBA/2 mouse after the skin was treated with 0.2% 20-methylcholanthrene in ethyl ether. The tumor line is maintained by serial passage in female DBA/2 mice.
On day, 0, female CDF1 mice weighing 18-22 g are inoculated with 1×10^5 L1210 leukemia cells harvested from the ascites of DBA/2 mice. The mice are randomized into groups of six each and the test compounds and vehicle control are administered intraperitoneally once daily for nine consecutive days beginning on day 1. A ≥20% decrease in body weight on day 5 is considered an indication of toxicity. The acceptable control mean survival time is 8-11 days.
Results are expressed as percentage of the mean survival time of the vehicle-treated control group according to the formula: [formula] Mice which survive for 30 days are considered cured and are not included in the calculation of the mean survival time.
The NCI criteria for activity is used. A compound is considered to have moderate activity against L1210 leukemia if it has a % T/C≥125%, and it is considered to have good activity against L1210 leukemia if it has a % T/C≥150%.

[2] = test system: DLD-2 human colon carcinoma xenograft; assay: DLD-2 Human Colon Carcinoma Xenograft Test; type: in vivo, human tumor in athymic (NU/NU) mice; details: dose 50 mg/kg, intraperitoneal, once daily for nine days
Method: as §1
The DLD-2 tumor line was orignally obtained from a primary colon carcinoma surgically removed from a patient. The line is maintained by serial passage in athymic nude mice.
On day 0, male and female outbred Swiss mice bearing the NU/NU gene and weighing 22-30 g are inoculated with 0.2 mL of a 25% tumor mince. […] Tumor measurements and weights are recorded once a week. […]
The efficacy of the test compounds is determined by the extent of tumor growth inhibition in treated versus vehicle-treated control mice. Initial tumor weights (mg) are calculated from the tumor dimensions (mm) using the formula for the volume of a prolate ellipsoid (L×W^2 /2). Net tumor weights are calculated for each of the treated groups and the vehicle-treated control group by subtracting the initial tumor weight (estimated) from the final tumor weight (actual) on day 19. […] Results are expressed as percent inhibition of control growth according to the formula: [formula] […]

B16 melanoma = assay: B16 Murine Melanoma Test; type: in vivo, mouse; details: intraperitoneal, once daily for nine days
Method: as §1
The B16 tumor line arose spontaneously in 1954 on the skin at the base of the ear of a C57BL mouse. The tumor line is maintained by serial passage in female C57BL mice.
On day 0, female B6C3F1 mice are inoculated intraperitoneally with 0.5 mL of a 10% tumor brei. This brei is prepared by homogenizing fresh B16 tumors, grown subcutaneously in C57BL mice, in cold physiological saline. Mice are randomized in groups of ten each, with 20 animals being in the control group. The test compounds and vehicle control are administered intraperitoneally once daily for nine consecutive days beginning on day 1. A ≥20% decrease in body weight on day 5 is considered an indication of toxicity. The acceptable mean control survival time is 14-22 days. Results are expressed as a percentage of the mean survival time of the vehicle-treated control group according to the formula: [formula] […]

Structure (SMILES) | IC50 [1] [µg/mL] | % T/C (mean survival time, percentage of vehicle-treated control) (L1210 leukemia; dose 100 mg/kg) [%] | % Inhibition (tumor growth) [2] [%] | % T/C (mean survival time, percentage of vehicle-treated control) (B16 melanoma; dose 35 mg/kg) [%] | % T/C (mean survival time, percentage of vehicle-treated control) (L1210 leukemia; dose 50 mg/kg) [%] | % T/C (mean survival time, percentage of vehicle-treated control) (B16 melanoma; dose 50 mg/kg) [%]
O=C(O)c1c2c(nc3ccccc13)-c1ccc(-c3ccccc3)cc1CC2 [Example 1, 5,6-Dihydro-3-phenylbenz[c]acridine-7-carboxylic acid] | 14.1 (≈ 40.1 µM) | 178 |  |  |  | 
O=C(O)c1c2c(nc3ccc(F)cc13)-c1ccc(-c3ccccc3)cc1CC2 [Example 3, 5,6-Dihydro-9-fluoro-3-phenylbenz[c]acridine-7-carboxylic acid] | 0.05 (≈ 0.135 µM) | 180 | 70 | 134 |  | 
O=C([O-])c1c2c(nc3ccc(F)cc13)-c1ccc(-c3ccccc3)cc1CC2.[Na+] [Example 12, 5,6-Dihydro-9-fluoro-3-phenylbenz[c]acridine-7-carboxylic acid, sodium salt] | 0.06 |  |  |  | 171 | 140
O=C(O)c1c2c(nc3ccccc13)-c1cc3sc4ccccc4c3cc1CC2 [Example 24] | 1.96 (≈ 5.14 µM) |  |  |  |  | 
O=C(O)c1c2c(nc3ccc(F)cc13)-c1cc3sc4ccccc4c3cc1CC2 [Example 27, 6,7-Dihydro-3-fluoro[1]-benzothieno[2',3':4,5]benz[1,2-c]acridine-5-carboxylic acid] | 1.4 (≈ 3.5 µM) | 149 |  |  |  | 

From US4918077A, “3-phenyl-5,6-dihydrobenz(c)acridine-7-carboxylic acids and related compounds as cancer chemotherapeutic agents” (E. I. Du Pont de Nemours & Co., Inc., priority 1989, dated 1990)
